Test results: patent publication US12077503B2, “Substituted cyclic amides and their use as herbicides” (FMC CORPORATION, priority 2015, dated 2024)

Columns and labels:
Assay type in all cases: in vivo
[1] = test system: ducksalad (Heteranthera limosa); assay: Test B flooded paddy test; conditions: Heteranthera limosa, 250 g ai/ha, Flood; 0 to 100 scale where 0 is no effect and 100 is complete control; read-out: Ducksalad plant response rating
Summary of the method: (§1)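 Response scored visually against untreated controls, 0 = no effect and 100 = complete control, 13–15 d after treatment in the greenhouse. Compounds added to paddy water held 3 cm above soil surface. Treatment given at 2-leaf stage.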

[2] = test system: sedge, umbrella (small-flower umbrella sedge, Cyperus difformis); assay: Test B flooded paddy test; conditions: Cyperus difformis, 250 g ai/ha, Flood; 0 to 100 scale where 0 is no effect and 100 is complete control; read-out: Sedge, Umbrella plant response rating
Summary of the method: as §1

rice (Oryra sativa) = assay: Test B flooded paddy test; conditions: Oryza sativa, 250 g ai/ha, Flood; 0 to 100 scale where 0 is no effect and 100 is complete control; read-out: Rice plant response rating
Summary of the method: as §1

[3] = test system: barnyardgrass (Echinochloa crus-galli); assay: Test B flooded paddy test; conditions: Echinochloa crus-galli, 250 g ai/ha, Flood; 0 to 100 scale where 0 is no effect and 100 is complete control; read-out: Barnyardgrass plant response rating
Summary of the method: as §1

[4] = test system: blackgrass (Alopecurus myosuroides); assay: Test A postemergence; conditions: Alopecurus myosuroides, post-emergence, 240 h, Postemergence, read-out: Plant response rating, Blackgrass
Summary of the method: (§2)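 Each rating is a visual injury score from 0 to 100 given about 10 d after treatment, judged against untreated controls kept alongside in the greenhouse. In loam soil–sand blend, seeds got a preemergence directed soil spray, while postemergence plants were 2 to 10 cm tall at spraying.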

[5] = test system: giant foxtail (Setaria faberii); assay: Test A postemergence; conditions: Setaria faberi, post-emergence, 240 h, Postemergence, read-out: Plant response rating, Foxtail, Giant
Summary of the method: as §2

[6] = test system: ryegrass, Italian (Italian ryegrass, Lolium multiflorum); assay: Test A postemergence; conditions: Lolium multiflorum, post-emergence, 240 h, Postemergence, read-out: Plant response rating, Ryegrass, Italian
Summary of the method: as §2

[7] = test system: Galium (catchweed bedstraw, Galium aparine); assay: Test A postemergence; conditions: Galium, post-emergence, 240 h, Postemergence, read-out: Plant response rating, Galium
Summary of the method: as §2

corn (Zea mays) = assay: Test A postemergence; conditions: Zea mays, post-emergence, 240 h, Postemergence
Summary of the method: as §2

[8] = test system: pigweed (Amaranthus retroflexus); assay: Test A postemergence; conditions: Amaranthus retroflexus, post-emergence, 240 h, Postemergence, read-out: Plant response rating, Pigweed
Summary of the method: as §2

Kochia (Kochia scoparia) [9] = assay: Test A postemergence; conditions: Bassia scoparia, post-emergence, 240 h, Postemergence, read-out: Plant response rating, Kochia
Summary of the method: as §2

[10] = test system: barnyardgrass (Echinochloa crus-galli); assay: Test A postemergence; conditions: Echinochloa crus-galli, post-emergence, 240 h, Postemergence, read-out: Plant response rating, Barnyardgrass
Summary of the method: as §2

[11] = test system: wheat (Triticum aestivum); assay: Test A postemergence; conditions: Triticum aestivum, post-emergence, 240 h, Postemergence, read-out: Plant response rating, Wheat
Summary of the method: as §2

[12] = test system: ragweed (common ragweed, Ambrosia elatior); assay: Test A postemergence; conditions: Ambrosia artemisiifolia, post-emergence, 240 h, Postemergence, read-out: Plant response rating, Ragweed
Summary of the method: as §2

[13] = test system: giant foxtail (Setaria faberii); assay: Test A preemergence; conditions: Setaria faberi, pre-emergence, 240 h, Preemergence
Summary of the method: as §2

[14] = test system: ryegrass, Italian (Italian ryegrass, Lolium multiflorum); assay: Test A preemergence; conditions: Lolium multiflorum, pre-emergence, 240 h, Preemergence
Summary of the method: as §2

[15] = test system: pigweed (Amaranthus retroflexus); assay: Test A preemergence; conditions: Amaranthus retroflexus, pre-emergence, 240 h, Preemergence
Kochia (Kochia scoparia) [16] = assay: Test A preemergence; conditions: Bassia scoparia, pre-emergence, 240 h, Preemergence
Summary of the method: as §2

[17] = test system: barnyardgrass (Echinochloa crus-galli); assay: Test A preemergence; conditions: Echinochloa crus-galli, pre-emergence, 240 h, Preemergence
Summary of the method: as §2

[18] = test system: ragweed (common ragweed, Ambrosia elatior); assay: Test A preemergence; conditions: Ambrosia artemisiifolia, pre-emergence, 240 h, Preemergence
Summary of the method: as §2

[19] = 125 g ai/ha, visual injury after approximately 10 d, 0 to 100 scale where 0 is no effect and 100 is complete control
[20] = 31 g ai/ha, visual injury after approx. 10 d, 0 to 100 scale, 0 no effect, 100 complete control

O=C(Nc1ccc(F)c(F)c1F)[C@H]1C(=O)N(C2CC2)CC[C@@H]1c1ccc(F)cc1 [Compound 1004]
pest or weed control at 250 g/ha [1]: 60% | pest or weed control at 250 g/ha [2]: 0% | pest or weed control at 250 g/ha (rice (Oryra sativa)): 0% | pest or weed control at 250 g/ha [3]: 0% | pest or weed control at 125 g/ha [4, 19]: 0% | pest or weed control at 31 g/ha [4, 20]: 0% | pest or weed control at 125 g/ha [5, 19]: 0% | pest or weed control at 31 g/ha [5, 20]: 0% | pest or weed control at 125 g/ha [6, 19]: 0% | pest or weed control at 31 g/ha [6, 20]: 0% | pest or weed control at 125 g/ha [7, 19]: 0% | pest or weed control at 31 g/ha [7, 20]: 0% | Corn plant response rating (crop injury, 0 = no effect, 100 = complete kill) at 125 g/ha (corn (Zea mays); [19]): 0% | Corn plant response rating (crop injury, 0 = no effect, 100 = complete kill) at 31 g/ha (corn (Zea mays); [20]): 0% | pest or weed control at 125 g/ha [8, 19]: 0% | pest or weed control at 31 g/ha [8, 20]: 0% | pest or weed control at 125 g/ha (Kochia (Kochia scoparia) [9]; [19]): 0% | pest or weed control at 31 g/ha (Kochia (Kochia scoparia) [9]; [20]): 0% | pest or weed control at 125 g/ha [10, 19]: 0% | pest or weed control at 31 g/ha [10, 20]: 0% | plant injury at 125 g/ha [11, 19]: 0% | plant injury at 31 g/ha [11, 20]: 0% | pest or weed control at 125 g/ha [12, 19]: 0% | pest or weed control at 31 g/ha [12, 20]: 0% | pest or weed control at 125 g/ha ([13]; 125 g ai/ha, visual injury rating after approximately 10 d, read-out: Foxtail, Giant plant response rating (0 to 100 scale, 0 is no effect, 100 is complete control)): 30% | pest or weed control at 31 g/ha ([13]; 31 g ai/ha, 0 to 100 scale (0 no effect, 100 complete control), read-out: Plant response rating, Foxtail, Giant): 0% | pest or weed control at 31 g/ha ([14]; 31 g ai/ha, 0 to 100 scale where 0 is no effect and 100 is complete control, read-out: Ryegrass, Italian plant response rating): 0% | pest or weed control at 125 g/ha ([14]; 125 g ai/ha, visual injury rating after approximately 10 d, read-out: Ryegrass, Italian plant response rating (0 to 100 scale, 0 is no effect, 100 is complete control)): 0% | pest or weed control at 31 g/ha ([15]; 31 g ai/ha, 0 to 100 scale where 0 is no effect and 100 is complete control, read-out: Pigweed plant response rating): 0% | pest or weed control at 125 g/ha ([15]; 125 g ai/ha, visual injury rating after approximately 10 d, read-out: Pigweed plant response rating (0 to 100 scale, 0 is no effect, 100 is complete control)): 0% | pest or weed control at 31 g/ha (Kochia (Kochia scoparia) [16]; 31 g ai/ha, 0 to 100 scale where 0 is no effect and 100 is complete control, read-out: Kochia plant response rating): 0% | pest or weed control at 125 g/ha (Kochia (Kochia scoparia) [16]; 125 g ai/ha, visual injury rating after approximately 10 d, read-out: Kochia plant response rating (0 to 100 scale, 0 is no effect, 100 is complete control)): 0% | pest or weed control at 125 g/ha ([17]; 125 g ai/ha, visual injury rating after approximately 10 d, read-out: Barnyardgrass plant response rating (0 to 100 scale, 0 is no effect, 100 is complete control)): 0% | pest or weed control at 31 g/ha ([17]; 31 g ai/ha, 0 to 100 scale (0 no effect, 100 complete control), read-out: Plant response rating, Barnyardgrass): 0% | pest or weed control at 31 g/ha ([18]; 31 g ai/ha, 0 to 100 scale where 0 is no effect and 100 is complete control, read-out: Ragweed plant response rating): 0% | pest or weed control at 125 g/ha ([18]; 125 g ai/ha, visual injury rating after approximately 10 d, read-out: Ragweed plant response rating (0 to 100 scale, 0 is no effect, 100 is complete control)): 0%
